Reference: patent EP0395653B1, “SYNOVIAL PHOSPHOLIPASES” (ELI LILLY AND COMPANY, priority 1987, dated 1989)

Legend:
highly purified PLA₂ = target: T1, highly purified PLA₂ (Homo sapiens, UniProt P14555); test: effect of SDS on rate of hydrolysis of phosphatidylcholine (Shakir's method); format: biochemical; conditions: of initial enzyme activity
T1 construct: from tissue; host or cells: pooled synovial fluid (CM Sephadex C50, Sephadex G75, preparative SDS-PAGE)
T1 sequence (P14555 21-144): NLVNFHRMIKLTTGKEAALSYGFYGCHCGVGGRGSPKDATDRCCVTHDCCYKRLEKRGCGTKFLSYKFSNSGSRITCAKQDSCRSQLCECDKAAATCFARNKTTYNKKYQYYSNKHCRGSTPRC
Description: Determination of phospholipase activities towards the radiolabeled synthetic substrates, dipalmitoylphosphatidylcholine, and 2-linoleoyl-1-palmitoylphosphatidylethanolamine, was carried out as described by Shakir, (1981) Anal Biochim 114:64-70. Standard incubation mixtures contained 750 nmol of phospholipid, 2 mM CaCl₂, 2 mM sodium deoxycholate (DOC), 0.09% Triton X-100, and enzyme protein in 0.1 M Tris-HCl buffer in a total volume of 400 µl. Incubations were carried out at optimal pH (see below) for 1 h at 37°C in a shaking water bath. The reaction was stopped by addition of 2.0 ml of n-heptane-isopropanol-1 N sulfuric acid (1:4:0.1, v/v/v). Released fatty acids were extracted by the method of Shakir, (1981) Anal Biochim 114:64-70. PLA₂ activity is expressed as nmol of released fatty acid per mg of protein per h.
The effect of SDS on the rate of hydrolysis of phosphatidylcholine by highly purified PLA₂ was studied using Shakir's method, supra. SDS inhibited PLA₂ activity on a concentration-dependent manner. Inhibition of PLA₂ was 94 and 7% of initial enzyme activity at SDS concentrations of 1 mg/ml and 0.1 mg/ml, respectively. In evaluating the utility of preparative SDS-PAGE, recovery of enzyme from the slab gel was consistently between 95-100% of the total enzyme applied to the gel.

sPLA₂ type A = sPLA₂ type A (Homo sapiens, UniProt P14555); conditions: 0.5 M Tris
sPLA₂ type B = test: effect of Tris or Na deoxycholate on hydrolytic activity; format: biochemical, human

## CCCCCCCCCCCCOS(=O)(=O)[O-].[Na+] [SDS, sodium dodecyl sulfate]
Highly purified PLA₂; SDS 0.1 mg/ml
  inhibition at 100 µg/mL: 7%
Highly purified PLA₂; SDS 1 mg/ml
  inhibition at 1000 µg/mL: 94%

## NC(CO)(CO)CO [Tris]
sPLA₂ type A
  effect on sPLA₂ type A activity: inhibited
sPLA₂ type B; 0.5 M Tris
  effect on hydrolytic activity of type B relative to type A: considerable stimulation

## sodium deoxycholate [Na deoxycholate]
sPLA₂ type B; 0.1% Na deoxycholate
  effect on hydrolytic activity of type B relative to type A: considerable stimulation
